Primed or numbered codes have the meaning given here. Ends that are not written are not given here. Peptide text beside a SMILES is read from it. * marks the point of attachment. FITC = O=C1OC2(c3ccc(O)cc3Oc3cc(O)ccc32)c2ccc(NC(=S)*)cc21; Biotin = O=C1N[C@H]2[C@H](CS[C@H]2CCCCC(=O)*)N1; FITC′ = fluorescein isothiocyanate
Legend:
CPMV [1] = assay: Competitive ELISA between synthetic CBP peptides and monoclonal phage MPSEF; assay type: binding, Cowpea mosaic virus; settings: for Kd: competition binding ELISA against MPSEF, read-out: dissociation constant KD
Method: 5 μg of CPMV (in 0.1 M bicarbonate buffer, pH 8.6) was coated into each well of a Nunc Maxisorp™ flat-bottom 96-well plate and incubated overnight at 4° C. 2% (w/v) BSA was also coated to serve as negative control. Next day, the plate was blocked with 2% (w/v) BSA and incubated at rt with shaking at 800 rpm for 1 h. Subsequently, the plate was washed thrice with 0.1% TBST for 1 min. 100 μL of amplified phage from the last biopanning cycle was added into each well followed by incubation at rt with shaking at 800 rpm for 1 h. Later, the plate was washed thrice with 0.5% TBST for 5 min. 100 μL of 1:500 dilution of HRP-conjugated anti-M monoclonal antibody (Abcam ab50370) was added and incubated at rt for 1 h with shaking at 8 rpm. The plate was again washed thrice with 0.5% TBST for 5 min followed by adding 100 μL of tetramethylbenzidine (TMB) substrate (Thermo Scientific Pierce) into each well. The plate was incubated at dark for 10 min and the absorbance was measured at 370 nm using an Infinite 200 Rx plate reader (Tecan Life Sciences) with 25 flashes in 96-well flat-bottom plate mode. Monoclonal phages with at least 0.3 difference in absorbance value between CPMV and BSA were subjected for DNA sequencing (Eurofins Genomics).
Competitive ELISA was performed as mentioned in ‘Monoclonal ELISA’ with modifications. Two-fold serial dilutions of CPMV peptide (0.500 μg, 0.250 μg, 0.125 μg, 0.063 μg, 0.031 μg, 0.016 μg, 0.008 μg, 0.004 μg, 0.002 μg) were added separately into the well together with 10^9 pfu of monoclonal phages. The reaction after incubation with TMB substrate was stopped with 50 μL of 2 N H2SO4. Colorimetric detection was carried out by measurement at 450 nm using an Infinite 200 Rx plate reader (Tecan Life Sciences) with 25 flashes in 96-well flat-bottom plate mode.
To determine the dissociation constant KD, competition binding ELISAs were set up. Here binding of synthetic CBPs (used in a dilution series) to CPMV was competed against MPSEF (used as constant amount). Phage MPSEF was detected by HRP-conjugated anti-M13 monoclonal antibody and measured at OD450 nm. CPMV bound MPSEF (OD450 nm) is inversely proportionate to the amount of peptide loaded for competition. The amount of MPSEF binding to CPMV reduced with the increasing amount of synthetic peptides, subsequently yielded lower absorbance value (FIG. 4G and FIG. 4H). […] Different modes of peptide modification resulted different IC50 and KD values despite having the exact same sequence.

[2] = system: CPMV coat proteins (S and L protein); assay: Modified western blot of CBP-biotin on denatured CPMV coat proteins; assay type: binding, Cowpea mosaic virus; settings: denatured S and L protein on nitrocellulose, streptavidin HRP (FIG. 3C)
Method: 10 μg of CPMV was loaded onto a NuPage™ 12% bis-tris gel (Thermo Fisher Scientific) and electrophoresed for 40 min at 200 V. Proteins were then blotted onto Amersham Protran 0.45 Nitrocellulose membrane (GE Healthcare) at 25 V for 2 h. The membrane was then blocked with 5% (w/v) BSA for 1 h at rt with gentle shaking. Subsequently, the membrane was washed thrice with 0.5% TBST for 1 min. 1 μg/mL of CPMV-biotin peptide was added to the membrane for 1 h incubation at rt. The membrane was then washed with 0.5% TBST for min. 100 μL of 1:500 dilution of HRP-conjugated anti-streptavidin monoclonal antibody (Abcam ab7403) was added and incubated at rt for 1 h. Following three washes with 0.5% TBST, the membrane was developed with DAB substrate kit, peroxidase HRP (Vector Laboratories) for 5-10 min. The DAB reagent was drained off and the bands were documented with ProteinSimple FluorChem®.

CPMV [3] = assay: Peptide ELISA of CBP-biotin on streptavidin plate; assay type: binding, Cowpea mosaic virus; settings: 5 μg CPMV, vs. control without CPMV, p<0.0001 (FIG. 4E)
Method: The plate was blocked with 2% (w/v) BSA followed by three washings with 0.1% TBST for 1 min per wash. 5 μg of CPMV was added for binding and incubated for 1 h at rt with shaking at 8 rpm. Then the plate was washed thrice with 0.5% TBST for 5 min each wash. 100 μL of anti-CPMV rabbit polyclonal antibodies (1:500 dilution) was added to the wells followed by incubation at rt for 1 h with shaking at 800 rpm. Following three washing steps using 0.5% TBST for 5 min, 100 μL of HRP conjugated goat anti-rabbit antibodies (1:5000 dilution; Pacific Immunology) was added to the wells and incubated at rt for 1 h with shaking at 800 rpm. Finally, the plate was washed thrice with 0.5% TBST followed by adding 100 μL of TMB substrate (Thermo Scientific Pierce) into each well. The plate was incubated in the dark for 5-10 min and the reaction was stopped with 50 μL of 2N H2SO4. Absorbance was measured at 450 nm using an Infinite 200 Rx plate reader (Tecan Life Sciences) with 25 flashes in 96-well flat-bottom plate mode.
Next, Applicant performed a series of enzyme-linked immunosorbent assays (ELISAs) using the CBP-FITC and CBP-biotin to further probe their binding affinity to CPMV. CBP-biotin was coated onto a streptavidin-functionalized plate, this was followed by incubation with CPMV (CPMV was omitted for the control) (FIG. 4E). […]

p185HER2/neu = p185HER2/neu (Homo sapiens, UniProt P04626); settings: binding to p185HER2/neu; cited from earlier work
CPMV [4] = assay: Native agarose gel electrophoresis of FITC peptides with CPMV; assay type: binding, Cowpea mosaic virus; settings: 1.2% agarose gel after dual-purification
Method: 10 μg of FITC peptide conjugated CPMV was loaded onto a 1.2% (w/v) TAE agarose gel. 10 μg of CPMV and 1 μg of free CPMV-FITC peptide was loaded as control. The samples were electrophoresed at 110 V for 40 min.
The dual functional CBP-AHNP peptide was synthesized by fusing AHNP to the C-terminus of the CBP domain. A control peptide (*AHNP) without the CBP domain was also synthesized; both peptides were modified with a FITC label at their C terminus. CPMV-CBP-AHNP and controls were characterized by native agarose gel electrophoresis as described above.

[5] = target: T1, Cowpea mosaic virus (CPMV) (Cowpea mosaic virus), P03599; assay: competitive ELISA against MPSEF phage (10^9 pfu) on coated CPMV
T1 chain 1: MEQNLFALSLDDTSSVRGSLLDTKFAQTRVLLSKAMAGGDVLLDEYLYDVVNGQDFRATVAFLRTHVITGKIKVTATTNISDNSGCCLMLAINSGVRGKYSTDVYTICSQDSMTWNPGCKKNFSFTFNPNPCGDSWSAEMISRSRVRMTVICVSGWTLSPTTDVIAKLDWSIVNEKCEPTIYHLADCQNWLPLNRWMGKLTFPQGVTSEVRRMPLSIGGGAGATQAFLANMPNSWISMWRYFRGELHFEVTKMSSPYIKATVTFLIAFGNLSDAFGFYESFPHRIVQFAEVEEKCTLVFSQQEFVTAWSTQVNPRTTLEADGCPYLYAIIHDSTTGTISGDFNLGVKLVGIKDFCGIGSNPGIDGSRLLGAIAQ
T1 chain 2: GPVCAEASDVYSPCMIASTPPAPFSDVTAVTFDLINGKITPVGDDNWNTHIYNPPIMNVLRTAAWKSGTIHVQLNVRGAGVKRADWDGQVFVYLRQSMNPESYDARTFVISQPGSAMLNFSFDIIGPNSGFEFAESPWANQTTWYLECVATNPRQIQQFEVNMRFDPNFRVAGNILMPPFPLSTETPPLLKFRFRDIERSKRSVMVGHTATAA

[6] = target: T1, Cowpea mosaic virus (CPMV) (Cowpea …); assay: from competition binding ELISA against MPSEF phage on coated CPMV
[7] = target: T1, Cowpea mosaic virus (CPMV) (Cowpea …); assay: UV/visible spectroscopy of the purified complex (500-molar excess of peptide)
[8] = peptide dilution series competed against constant MPSEF phage for CPMV, OD450 nm

CC(C)[C@H](NC(=O)[C@H](CCCNC(=N)N)NC(=O)[C@H](Cc1c[nH]c2ccccc12)NC(=O)CN)C(=O)N[C@@H](CO)C(=O)N[C@@H](CCC(=O)O)C(=O)N[C@@H](Cc1ccccc1)C(=O)NCC(=O)NCC(=O)NCC(=O)N[C@@H](CO)C(=O)N[C@@H](CCCCNC(=S)Nc1ccc2c(c1)C(=O)OC21c2ccc(O)cc2Oc2cc(O)ccc21)C(=O)O [CBP-FITC] (H-GWRVSEFGGGSK(FITC)-OH; N-terminus and C-terminus assumed)
Kd (CPMV [1]): ~700 nM | half maximal inhibition concentration (IC50) (CPMV [1]; [8]): 0.56 µg

CC(C)[C@H](NC(=O)[C@H](CCCNC(=N)N)NC(=O)[C@H](Cc1c[nH]c2ccccc12)NC(=O)CN)C(=O)N[C@@H](CO)C(=O)N[C@@H](CCC(=O)O)C(=O)N[C@@H](Cc1ccccc1)C(=O)NCC(=O)NCC(=O)NCC(=O)N[C@@H](CO)C(=O)N[C@@H](CCCCNC(=O)CCCC[C@@H]1SC[C@@H]2NC(=O)N[C@@H]21)C(=O)O [CBP-biotin] (H-GWRVSEFGGGSK(Biotin)-OH; N-terminus and C-terminus assumed)
Kd (CPMV [1]): ~7 nM | half maximal inhibition concentration (IC50) (CPMV [1]; [8]): 0.17 µg | IC50 (CPMV [1]; peptide dilution series competed against constant MPSEF phage for CPMV, OD450 nm, read-out: half maximal inhibition concentration (IC50)): 1140 nM | binding to CPMV coat proteins in western blot [2]: bound to the CPMV coat proteins | CPMV binding in ELISA (CPMV [3]): consistent with CPMV binding

FCDGFYACYMDV [AHNP, cyclic peptide derived from monoclonal antibody trastuzumab, HER2 ligand]
Kd (p185HER2/neu): 300 nM

N-GWRVSEF-KKKKKKKKDDDD-FCDGFYACYMDVK/FITC/-C (GWRVSEFKKKKKKKKDDDDFCDGFYACYMDVK; not fully specified (C-terminus, bridges); cysteine pairing not given here; also: FITC label at C-terminal Lys) [CBP-AHNP, dual functional peptide, AHNP fused to the C-terminus of the CBP domain, FITC label]
labeling of CPMV seen by native agarose gel electrophoresis (FITC signal with RNA and protein band) (CPMV [4]): successful labeling

N-KKKKKKKKDDDD-FCDGFYACYMDVK/FITC/-C (KKKKKKKKDDDDFCDGFYACYMDVK; not fully specified (C-terminus, bridges); cysteine pairing not given here; also: FITC label at C-terminal Lys) [*AHNP, control peptide without the CBP domain, FITC label at C terminus, reference compound]
labeling of CPMV seen by native agarose gel electrophoresis (FITC signal with RNA and protein band) (CPMV [4]): no non-specific interaction

GWRVSEFGGGSK-biotin (not fully specified (residue 12)) [CBP-biotin (N-…/biotin/-C)]
IC50 [5]: 1140 nM | Kd [6]: 7 nM

GWRVSEFGGGSK-{FITC′} (not fully specified (residue 12)) [CBP-FITC (N-…/FITC/-C)]
IC50 [5]: 3340 nM | Kd [6]: 700 nM | CBP-FITC peptides per CPMV particle (peptides per CPMV particle) [7]: 6

From patent US20240261429A1, “CPMV BINDING PEPTIDE” (The Regents of the University of California, priority 2021, published 2024)
